pIC50: −log10 of the molar value.
Key:
MC-38 cells = test: MC-38 Efficacy Assay (tumor growth inhibition); assay type: in vivo, Female C57BL/6 mice; settings: once a day for 21 days, subcutaneous MC-38 tumors in C57BL/6 mice
human MER (528-end) = target: T1, human MER (528-end) (Homo sapiens, UniProt Q12866); test: HTRF kinase activity biochemical assay, MER; settings: recombinant kinase, 10 uM ATP, 30 minutes pre-incubation; read-out: HTRF MERTK IC50;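 further: phosphorylation of a biotin-tagged tyrosine kinase substrate detected by Eu3+-cryptate antibody and streptavidin-XL665 time-resolved fluorescence, read after 1 h at room temperature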
T1 construct: human MER (528-end); purchased Carnabio, Japan
T1 sequence (Q12866 528-999 limits assumed): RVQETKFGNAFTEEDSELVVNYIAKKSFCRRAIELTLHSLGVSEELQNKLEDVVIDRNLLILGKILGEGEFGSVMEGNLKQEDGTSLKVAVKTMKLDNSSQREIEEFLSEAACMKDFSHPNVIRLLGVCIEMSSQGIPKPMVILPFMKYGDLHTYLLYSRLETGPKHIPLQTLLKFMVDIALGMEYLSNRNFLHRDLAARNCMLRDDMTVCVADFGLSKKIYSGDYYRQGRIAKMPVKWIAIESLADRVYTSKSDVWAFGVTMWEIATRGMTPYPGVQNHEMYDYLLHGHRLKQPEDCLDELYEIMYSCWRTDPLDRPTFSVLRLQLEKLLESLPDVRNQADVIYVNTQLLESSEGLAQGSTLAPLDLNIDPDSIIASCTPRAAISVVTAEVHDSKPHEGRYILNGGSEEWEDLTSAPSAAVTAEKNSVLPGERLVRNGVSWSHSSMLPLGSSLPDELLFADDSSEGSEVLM

human AXL (473-end) = target: T2, human AXL (473-end) (Homo sapiens, UniProt P30530); test: HTRF kinase activity biochemical assay, AXL; settings: recombinant kinase, 10 uM ATP, 30 minutes pre-incubation; read-out: HTRF AXL IC50;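 further: phosphorylation of a biotinylated tyrosine kinase substrate detected via Eu3+-cryptate anti-TK antibody and streptavidin-XL665, fluorescence read after a 1 h incubation at room temperature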
T2 construct: human AXL (473-end); purchased SignalChem, Canada
T2 sequence (P30530 473-894 limits assumed): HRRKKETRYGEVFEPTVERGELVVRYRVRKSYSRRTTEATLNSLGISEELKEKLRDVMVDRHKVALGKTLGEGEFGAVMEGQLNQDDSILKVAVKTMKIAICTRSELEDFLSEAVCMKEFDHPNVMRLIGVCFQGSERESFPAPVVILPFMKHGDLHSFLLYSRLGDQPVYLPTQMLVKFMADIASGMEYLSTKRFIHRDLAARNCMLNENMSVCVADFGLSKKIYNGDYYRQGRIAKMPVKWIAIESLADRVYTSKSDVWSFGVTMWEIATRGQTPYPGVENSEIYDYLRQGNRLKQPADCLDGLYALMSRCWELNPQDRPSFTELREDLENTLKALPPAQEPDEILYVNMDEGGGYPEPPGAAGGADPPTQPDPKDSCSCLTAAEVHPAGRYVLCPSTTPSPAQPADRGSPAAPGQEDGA

TYRO3 (455-end) = target: T3, TYRO3 (455-end) (Homo sapiens, UniProt Q06418); test: HTRF kinase activity biochemical assay, TYRO3; settings: recombinant kinase, 10 uM ATP, 30 minutes pre-incubation; read-out: HTRF TYRO IC50;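 further: biotinylated tyrosine kinase substrate phosphorylation detected via streptavidin-XL665 and Eu3+-cryptate anti-phospho antibody time-resolved fluorescence, read after 1 h detection at room temperature, 384-well format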
T3 construct: TYRO3 (455-end); purchased SignalChem, Canada
T3 sequence (Q06418 455-890 limits assumed): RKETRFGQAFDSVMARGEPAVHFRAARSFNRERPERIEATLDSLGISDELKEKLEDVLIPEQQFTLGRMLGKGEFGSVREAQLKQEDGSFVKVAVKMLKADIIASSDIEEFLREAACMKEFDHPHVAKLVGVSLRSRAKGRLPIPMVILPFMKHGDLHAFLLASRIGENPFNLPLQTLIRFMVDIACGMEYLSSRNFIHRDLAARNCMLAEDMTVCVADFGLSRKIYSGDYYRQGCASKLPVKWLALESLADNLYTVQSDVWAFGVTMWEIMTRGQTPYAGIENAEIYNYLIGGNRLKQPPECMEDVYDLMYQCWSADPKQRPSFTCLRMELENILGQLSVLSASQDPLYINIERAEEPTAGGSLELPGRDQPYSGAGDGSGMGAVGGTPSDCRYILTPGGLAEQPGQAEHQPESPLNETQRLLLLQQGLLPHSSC

pIC50 (human MER (528-end)) | pIC50 (human AXL (473-end)) | pIC50 (TYRO3 (455-end)) | SMILES | % TGI (dose) (MC-38 cells; 15 mg/kg/d) | % TGI (dose) (MC-38 cells; 10 mg/kg/d) | % TGI (dose) (MC-38 cells; 30 mg/kg/d)
7.48 | 7.27 | 5.48 | Cn1cc(Nc2ncc(C3CN(c4nc5ccc(OCCC(C)(C)OP(=O)(O)O)cc5o4)C3)nc2C(N)=O)cn1 [Example 77, 4-{[2-(3-{6-carbamoyl-5-[(1-methyl-1H-pyrazol-4-yl)amino]pyrazin-2-yl}azetidin-1-yl)-1,3-benzoxazol-6-yl]oxy}-2-methylbutan-2-yl dihydrogen phosphate] | 39% | – | –
9.00 | 8.22 | 6.82 | CC(C)(O)Cn1cc(Nc2ncc(C3CN(c4nc5ccc(F)cc5o4)C3)nc2C(N)=O)cn1 [Example 28, 6-[1-(6-fluoro-1,3-benzoxazol-2-yl)azetidin-3-yl]-3-{[1-(2-hydroxy-2-methylpropyl)-1H-pyrazol-4-yl]amino}pyrazine-2-carboxamide] | – | 17% | –
8.70 | 8.40 | 5.73 | Cn1cc(Nc2ccc(C3CN(c4nc5ccc(OCC(C)(C)O)cc5o4)C3)nc2C(N)=O)cn1 [Example 85, 6-{1-[6-(2-hydroxy-2-methylpropoxy)-1,3-benzoxazol-2-yl]azetidin-3-yl}-3-[(1-methyl-1H-pyrazol-4-yl)amino]pyridine-2-carboxamide] | – | 37% | –
> 9.00 | 9.00 | 7.32 | Cn1cc(Nc2ncc(C3CN(c4nc5ccc(OCc6ccn(C)n6)cc5o4)C3)nc2C(N)=O)cn1 [Example 80, 3-[(1-methyl-1H-pyrazol-4-yl)amino]-6-(1-{6-[(1-methyl-1H-pyrazol-3-yl)methoxy]-1,3-benzoxazol-2-yl}azetidin-3-yl)pyrazine-2-carboxamide] | – | 23% | –
8.52 | 7.96 | 6.44 | CC(C)(O)Cn1cc(Nc2ncc(C3CN(c4nc5ccccc5o4)C3)nc2C(N)=O)cn1 [Example 30, 6-[1-(1,3-benzoxazol-2-yl)azetidin-3-yl]-3-{[1-(2-hydroxy-2-methylpropyl)-1H-pyrazol-4-yl]amino}pyrazine-2-carboxamide] | – | 33% | –
> 9.00 | 8.70 | 7.00 | COc1cnc(Oc2ccc3nc(N4CC(c5cnc(Nc6cnn(C)c6)c(C(N)=O)n5)C4)oc3c2)nc1 [Example 102, 6-(1-{6-[(5-methoxypyrimidin-2-yl)oxy]-1,3-benzoxazol-2-yl}azetidin-3-yl)-3-[(1-methyl-1H-pyrazol-4-yl)amino]pyrazine-2-carboxamide] | – | – | –
8.70 | 8.52 | 6.89 | Cn1cc(Nc2ncc(C3CN(c4nc5ccc(OCC#N)cc5o4)C3)nc2C(N)=O)cn1 [Example 24, 6-{1-[6-(cyanomethoxy)-1,3-benzoxazol-2-yl]azetidin-3-yl}-3-[(1-methyl-1H-pyrazol-4-yl)amino]pyrazine-2-carboxamide] | – | – | –
8.70 | 8.05 | 5.77 | Cn1cc(Nc2ncc(C3CN(c4nc5ccc(OCC(=O)N6CCC6)cc5o4)C3)nc2C(N)=O)cn1 [Example 73, 6-(1-{6-[2-(azetidin-1-yl)-2-oxoethoxy]-1,3-benzoxazol-2-yl}azetidin-3-yl)-3-[(1-methyl-1H-pyrazol-4-yl)amino]pyrazine-2-carboxamide] | – | – | –
8.30 | 7.64 | 6.21 | Cc1ccc2nc(N3CC(c4cnc(Nc5cnn(CCO)c5)c(C(N)=O)n4)C3)oc2c1 [Example 54, 3-{[1-(2-hydroxyethyl)-1H-pyrazol-4-yl]amino}-6-[1-(6-methyl-1,3-benzoxazol-2-yl)azetidin-3-yl]pyrazine-2-carboxamide] | – | – | –
> 9.00 | 8.52 | 6.82 | Cc1cnc(COc2ccc3nc(N4CC(c5cnc(Nc6cnn(C)c6)c(C(N)=O)n5)C4)oc3c2)s1 [Example 82, 3-[(1-methyl-1H-pyrazol-4-yl)amino]-6-(1-{6-[(5-methyl-1,3-thiazol-2-yl)methoxy]-1,3-benzoxazol-2-yl}azetidin-3-yl)pyrazine-2-carboxamide] | – | – | –
8.40 | 8.70 | 5.57 | Cn1cc(Nc2ncc(C3CN(c4nc5ccc(C(=O)NC6CC6)cc5o4)C3)nc2C(N)=O)cn1 [Example 53, 2-(3-{6-carbamoyl-5-[(1-methyl-1H-pyrazol-4-yl)amino]pyrazin-2-yl}azetidin-1-yl)-N-cyclopropyl-1,3-benzoxazole-6-carboxamide] | – | – | –
8.70 | 8.22 | 6.57 | Cc1ccc2nc(N3CC(c4ccc(Nc5cnn(C)c5)c(C(N)=O)n4)C3)oc2c1 [Example 78, 6-[1-(6-methyl-1,3-benzoxazol-2-yl)azetidin-3-yl]-3-[(1-methyl-1H-pyrazol-4-yl)amino]pyridine-2-carboxamide] | – | – | –
> 9.00 | 9.00 | 6.80 | Cn1cc(Nc2ncc(C3CN(c4nc5ccc(OCC(C)(C)OC(=O)CN)cc5o4)C3)nc2C(N)=O)cn1 [Example 113, 1-{[2-(3-{6-carbamoyl-5-[(1-methyl-1H-pyrazol-4-yl)amino]pyrazin-2-yl}azetidin-1-yl)-1,3-benzoxazol-6-yl]oxy}-2-methylpropan-2-yl glycinate] | – | – | –
9.00 | 8.52 | 6.72 | Cn1cc(Nc2ncc(C3CN(c4nc5ccc(CCCO)cc5o4)C3)nc2C(N)=O)cn1 [Example 32, 6-{1-[6-(3-hydroxypropyl)-1,3-benzoxazol-2-yl]azetidin-3-yl}-3-[(1-methyl-1H-pyrazol-4-yl)amino]pyrazine-2-carboxamide] | – | – | –
9.00 | 8.40 | 6.66 | Cn1cc(Nc2ncc(C3CN(c4nc5ccc(C(F)(F)F)cc5o4)C3)nc2C(N)=O)cn1 [Example 12, 3-[(1-methyl-1H-pyrazol-4-yl)amino]-6-{1-[6-(trifluoromethyl)-1,3-benzoxazol-2-yl]azetidin-3-yl}pyrazine-2-carboxamide] | – | – | –
7.85 | 7.48 | 5.68 | Cn1cc(Nc2ccc(C3CN(c4nc5ccc(O)cc5o4)C3)nc2C(N)=O)cn1 [Example 84A, 6-[1-(6-hydroxy-1,3-benzoxazol-2-yl)azetidin-3-yl]-3-[(1-methyl-1H-pyrazol-4-yl)amino]pyridine-2-carboxamide] | – | – | –
9.00 | 8.52 | 6.03 | CN1CCC(Oc2ccc3nc(N4CC(c5cnc(Nc6cnn(C)c6)c(C(N)=O)n5)C4)oc3c2)C1=O (stereo not drawn) [Example 72, 6-(1-{6-[(1-methyl-2-oxopyrrolidin-3-yl)oxy]-1,3-benzoxazol-2-yl}azetidin-3-yl)-3-[(1-methyl-1H-pyrazol-4-yl)amino]pyrazine-2-carboxamide] | – | – | 44%

Reference: patent US20260232658A1, “AZETIDINYL BENZOXAZOLE COMPOUNDS AND THEIR USE AS MER AND AXL INHIBITORS” (DONG-A ST CO., LTD., priority 2022, published 2026)
